From publication PMC10539439 (Pharmacological Reports, 2023)
Values joined by “and” are separate entries in the source; they are usually repeats but may differ in a detail not shown here. Equal values may be shown once.

Tests used:
[1] = Blood pressure, 24-h telemetric method, normotensive rats; type: in vivo, rat; conditions: telemetry, 5 mg/kg, after seventh administration
Experimental: The blood pressure of rats treated with the tested compound was measured for a 24 h period after ip treatment (5 mg/kg b.w.) with a special telemetric system Stellar (TSE-Systems, Germany).
Surgery: The operation was carried out over 30 min under sterile conditions. Rats were anaesthetized with ketamine and xylasine (intramuscular injection: 100 mg/kg and 10 mg/kg). Before surgery and for 7 days after, the animals were also treated with cefuroxime (20 mg/kg/day) via intramuscular injection and ketoprofen (5 mg/kg/day) via ip injection. […] The transmitter was sutured to the peritoneal cavity.
The rats were individually caged for 2 weeks to heal after surgical cut. The animals were then placed in pairs in cages to reduce their isolation stress. Blood pressure was measured: before ip administration of the compounds – time 0 min and 24 h thereafter.

[2] = Blood pressure of anaesthetized normotensive rats; type: in vivo, rat
Experimental: Eighteen normotensive rats were anaesthetized with thiopental (70 mg/kg) by ip injection. The left carotid artery was cannulated with tubing filled with heparin solution in saline to facilitate pressure measurements using Apparatus PowerLab 4/35 (ADInstruments, Australia). Blood pressure was measured: before ip administration of 4-OH-Guanabenz at the doses of 2 or 5 or 10 mg/kg b.w. or water – time 0 min (control pressure) and continuously during the next 60 min.

[3] = 2 mg/kg, time 0, individual rats 1-6
[4] = 2 mg/kg, time 5, individual rats 1-6
[5] = 2 mg/kg, time 10, individual rats 1-6
[6] = 2 mg/kg, time 15, individual rats 1-6
[7] = 2 mg/kg, time 20, individual rats 1-6
[8] = 2 mg/kg, time 30, individual rats 1-6
[9] = 2 mg/kg, time 40, individual rats 1-6
[10] = 2 mg/kg, time 50, individual rats 1-6
[11] = 2 mg/kg, time 60, individual rats 1-6
[12] = 5 mg/kg, time 0, individual rats 1-6
[13] = 5 mg/kg, time 5, individual rats 1-6
[14] = 5 mg/kg, time 10, individual rats 1-6
[15] = 5 mg/kg, time 15, individual rats 1-6
[16] = 5 mg/kg, time 20, individual rats 1-6
[17] = 5 mg/kg, time 30, individual rats 1-6
[18] = 5 mg/kg, time 40, individual rats 1-6
[19] = 5 mg/kg, time 50, individual rats 1-6
[20] = 5 mg/kg, time 60, individual rats 1-6
[21] = 10 mg/kg, time not printed (1st of 9 lines), individual rats 1-6
[22] = 10 mg/kg, time not printed (2nd of 9 lines), individual rats 1-6
[23] = 10 mg/kg, time not printed (3rd of 9 lines), individual rats 1-6
[24] = 10 mg/kg, time not printed (4th of 9 lines), individual rats 1-6
[25] = 10 mg/kg, time not printed (5th of 9 lines), individual rats 1-6
[26] = 10 mg/kg, time not printed (6th of 9 lines), individual rats 1-6
[27] = 10 mg/kg, time not printed (7th of 9 lines), individual rats 1-6
[28] = 10 mg/kg, time not printed (8th of 9 lines), individual rats 1-6
[29] = 10 mg/kg, time not printed (9th of 9 lines), individual rats 1-6

In the case of N=C(N)N/N=C/c1c(Cl)cc(O)cc1Cl [4HOGuanabenz], the “diastolic pressure, mean” value ([1]; time 22, n 6) is reported as 68 mmHg, the “systolic pressure, mean” value ([1]; time 22, n 6) is reported as 108 mmHg and the “diastolic pressure, mean” value ([1]; time 23, n 6) is reported as 63.75 mmHg. For the same compound, the “systolic pressure, mean” value ([1]; time 23, n 6) was 107 mmHg, the “diastolic pressure, mean” value ([1]; time 24, n 6) was 67.5 mmHg and the “systolic pressure, mean” value ([1]; time 24, n 6) was 105 mmHg. The diastolic pressure [2, 3] was 104 mmHg and 92 mmHg and 99 mmHg and 108 mmHg and 82 mmHg and 91 mmHg, the systolic pressure [2, 3] was 135 mmHg and 127 mmHg and 134 mmHg and 140 mmHg and 114 mmHg and 116 mmHg and the diastolic pressure [2, 4] was 110 mmHg and 93 mmHg (2×) and 102 mmHg and 104 mmHg and 89 mmHg. The systolic pressure [2, 4] was 140 mmHg and 125 mmHg and 136 mmHg and 137 mmHg and 119 mmHg and 116 mmHg, the diastolic pressure [2, 5] was 105 mmHg and 88 mmHg (2×) and 96 mmHg and 99 mmHg and 92 mmHg and the systolic pressure [2, 5] was 134 mmHg and 120 mmHg and 130 mmHg (2×) and 119 mmHg and 116 mmHg. For the same compound, the diastolic pressure [2, 6] was 103 mmHg and 86 mmHg (2×) and 94 mmHg and 99 mmHg and 89 mmHg, the systolic pressure [2, 6] was 133 mmHg and 117 mmHg and 128 mmHg and 129 mmHg and 115 mmHg and 114 mmHg and the diastolic pressure [2, 7] was 99 mmHg and 84 mmHg and 92 mmHg and 96 mmHg and 86 mmHg and 85 mmHg. For the same compound, the systolic pressure [2, 7] was 128 mmHg and 115 mmHg and 124 mmHg and 125 mmHg and 112 mmHg and 111 mmHg, the diastolic pressure [2, 8] was 96 mmHg and 85 mmHg and 91 mmHg and 94 mmHg and 82 mmHg and 86 mmHg and the systolic pressure [2, 8] was 125 mmHg and 111 mmHg and 120 mmHg and 121 mmHg and 106 mmHg and 107 mmHg. The diastolic pressure [2, 9] was 101 mmHg and 86 mmHg and 90 mmHg and 93 mmHg and 79 mmHg and 85 mmHg, the systolic pressure [2, 9] was 131 mmHg and 116 mmHg and 119 mmHg (2×) and 104 mmHg and 105 mmHg and the diastolic pressure [2, 10] was 99 mmHg and 83 mmHg and 90 mmHg and 95 mmHg and 76 mmHg and 85 mmHg. The systolic pressure [2, 10] was 129 mmHg and 110 mmHg and 116 mmHg and 124 mmHg and 101 mmHg and 104 mmHg, the diastolic pressure [2, 11] was 96 mmHg (2×) and 83 mmHg and 90 mmHg and 73 mmHg and 85 mmHg and the systolic pressure [2, 11] was 125 mmHg and 111 mmHg and 118 mmHg and 122 mmHg and 98 mmHg and 103 mmHg. The diastolic pressure [2, 12] was 73 mmHg and 104 mmHg and 91 mmHg and 101 mmHg and 95 mmHg and 99 mmHg, the systolic pressure [2, 12] was 115 mmHg and 133 mmHg and 114 mmHg and 135 mmHg and 122 mmHg and 131 mmHg and the diastolic pressure [2, 13] was 71 mmHg and 106 mmHg and 112 mmHg and 113 mmHg and 100 mmHg and 108 mmHg. For the same compound, the systolic pressure [2, 13] was 105 mmHg and 136 mmHg and 150 mmHg and 144 mmHg and 133 mmHg and 145 mmHg, the diastolic pressure [2, 14] was 63 mmHg and 92 mmHg and 98 mmHg (2×) and 101 mmHg and 90 mmHg and the systolic pressure [2, 14] was 97 mmHg and 121 mmHg and 129 mmHg and 132 mmHg and 120 mmHg and 130 mmHg. The diastolic pressure [2, 15] was 62 mmHg and 89 mmHg and 87 mmHg and 95 mmHg and 83 mmHg and 91 mmHg, the systolic pressure [2, 15] was 94 mmHg and 117 mmHg and 115 mmHg and 125 mmHg and 110 mmHg and 121 mmHg and the diastolic pressure [2, 16] was 61 mmHg and 89 mmHg and 85 mmHg and 95 mmHg and 79 mmHg and 91 mmHg. The systolic pressure [2, 16] was 93 mmHg and 115 mmHg and 109 mmHg and 124 mmHg and 105 mmHg and 117 mmHg, the diastolic pressure [2, 17] was 63 mmHg and 90 mmHg and 86 mmHg and 93 mmHg (2×) and 77 mmHg and the systolic pressure [2, 17] was 92 mmHg and 117 mmHg and 108 mmHg and 122 mmHg and 103 mmHg and 121 mmHg. The diastolic pressure [2, 18] was 64 mmHg and 87 mmHg and 89 mmHg and 98 mmHg and 78 mmHg and 94 mmHg, the systolic pressure [2, 18] was 92 mmHg and 111 mmHg and 109 mmHg and 127 mmHg and 107 mmHg and 119 mmHg and the diastolic pressure [2, 19] was 65 mmHg and 87 mmHg and 89 mmHg and 91 mmHg and 78 mmHg and 96 mmHg. For the same compound, the systolic pressure [2, 19] was 91 mmHg and 112 mmHg and 110 mmHg and 115 mmHg and 102 mmHg and 124 mmHg, the diastolic pressure [2, 20] was 67 mmHg and 88 mmHg and 84 mmHg and 91 mmHg and 83 mmHg and 93 mmHg and the systolic pressure [2, 20] was 92 mmHg and 112 mmHg and 104 mmHg and 113 mmHg and 111 mmHg and 118 mmHg. The diastolic pressure [2, 21] was 75 mmHg and 81 mmHg and 116 mmHg and 86 mmHg and 114 mmHg and 107 mmHg, the systolic pressure [2, 21] was 113 mmHg and 125 mmHg and 158 mmHg and 100 mmHg and 145 mmHg and 140 mmHg and the diastolic pressure [2, 22] was 95 mmHg and 98 mmHg and 122 mmHg and 99 mmHg and 117 mmHg and 109 mmHg. For the same compound, the systolic pressure [2, 22] was 125 mmHg and 126 mmHg and 177 mmHg and 111 mmHg and 164 mmHg and 139 mmHg, the diastolic pressure [2, 23] was 89 mmHg and 95 mmHg and 109 mmHg and 87 mmHg and 111 mmHg and 107 mmHg and the systolic pressure [2, 23] was 115 mmHg and 124 mmHg and 150 mmHg and 101 mmHg and 151 mmHg and 134 mmHg. For the same compound, the diastolic pressure [2, 24] was 86 mmHg and 95 mmHg and 106 mmHg and 84 mmHg and 107 mmHg and 103 mmHg, the systolic pressure [2, 24] was 112 mmHg and 127 mmHg and 135 mmHg and 96 mmHg and 142 mmHg and 131 mmHg and the diastolic pressure [2, 25] was 84 mmHg (2×) and 92 mmHg and 108 mmHg and 103 mmHg (2×). For the same compound, the systolic pressure [2, 25] was 110 mmHg and 121 mmHg and 133 mmHg and 95 mmHg and 135 mmHg and 129 mmHg, the diastolic pressure [2, 26] was 83 mmHg and 91 mmHg and 105 mmHg and 81 mmHg and 101 mmHg (2×) and the systolic pressure [2, 26] was 108 mmHg and 123 mmHg and 135 mmHg and 91 mmHg and 132 mmHg and 127 mmHg. For the same compound, the diastolic pressure [2, 27] was 82 mmHg and 88 mmHg and 96 mmHg and 80 mmHg and 99 mmHg and 101 mmHg, the systolic pressure [2, 27] was 107 mmHg and 116 mmHg and 126 mmHg and 90 mmHg and 130 mmHg and 124 mmHg and the diastolic pressure [2, 28] was 84 mmHg and 90 mmHg and 106 mmHg and 78 mmHg and 98 mmHg and 97 mmHg. The systolic pressure [2, 28] was 107 mmHg and 121 mmHg and 134 mmHg and 87 mmHg and 129 mmHg and 122 mmHg, the diastolic pressure [2, 29] was 83 mmHg and 92 mmHg and 99 mmHg and 78 mmHg and 101 mmHg and 98 mmHg and the systolic pressure [2, 29] was 107 mmHg and 122 mmHg (2×) and 130 mmHg and 86 mmHg and 131 mmHg.
